Measurements published in patent US12084444B2, “Spiro-lactam NMDA modulators and methods of using same” (Tenacia Biotechnology (Hong Kong) Co., Limited, priority 2016, dated 2024).

Assays:
[1] = target: T1, NMDAR2A expressing HEK cell membranes (Homo sapiens, UniProt Q05586+Q12879); experiment: NMDAR agonist assay, [3H]MK-801 binding, NMDAR2A; type: biochemical; parameters: key to NMDAR2A B: log EC50: 0=−; ≥1×10^−9 M (e.g., −8)=+; <1×10^−9 M (e.g., −10)=++; details: 0.25 h, 50 μM glutamate; read-out: NMDAR2A A: % maximal [3H]MK-801 binding relative to 1 mM glycine
T1 construct: expressed in transfected cells; host or cells: HEK cells (membrane extract)
How it was run: (§1)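 HEK membranes (300 μg protein) expressing each subtype were preincubated 15 min at 25 °C with 50 μM glutamate and compound (1×10^−15–1×10^−7 M) or 1 mM glycine. [3H]MK-801 (0.3 μCi) binding then ran 15 min under nonequilibrium conditions, followed by filtration. EC50 and % maximal binding against 1 mM glycine came from three-parameter fits of baseline-subtracted DPM (N=2).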

[2] = target: T2, NMDAR2A expressing HEK cell membranes (Homo sapiens, UniProt Q12879); experiment: NMDAR agonist assay, [3H]MK-801 binding, NMDAR2A; type: biochemical; parameters: key to NMDAR2A B: log EC50: 0=−; ≥1×10^−9 M (e.g., −8)=+; <1×10^−9 M (e.g., −10)=++; details: 50 μM glutamate
T2 construct: expressed in transfected cells; host or cells: HEK cells (membrane extract)
How it was run: as §1

[3] = target: T3, NMDAR2B expressing HEK cell membranes (Homo sapiens, UniProt Q05586+Q13224); experiment: NMDAR agonist assay, [3H]MK-801 binding, NMDAR2B; type: biochemical; details: 50 μM glutamate
T3 construct: expressed in transfected cells; host or cells: HEK cells (membrane extract)
How it was run: as §1

[4] = target: T4, NMDAR2C expressing HEK cell membranes (Homo sapiens, UniProt Q14957); experiment: NMDAR agonist assay, [3H]MK-801 binding, NMDAR2C; type: biochemical; details: 50 μM glutamate
T4 construct: expressed in transfected cells; host or cells: HEK cells (membrane extract)
Method: (§2) Assays were conducted as described by Moskal et al., “GLYX-13: a monoclonal antibody-derived peptide that acts as an N-methyl-D-aspartate receptor modulator,” Neuropharmacology, 49, 1077-87, 2005. These studies were designed to determine if the test compounds act to facilitate NMDAR activation in NMDAR2A, NMDAR2B, NMDAR2C or NMDAR2D expressing HEK cell membranes as measured by increases in [^3H]MK-801 binding.
(§3) In the assay, 300 μg of NMDAR expressing HEK cell membrane extract protein was preincubated for 15 minutes at 25° C. in the presence of saturating concentrations of glutamate (50 μM) and varying concentrations of test compound (1×10^−15 M-1×10^−7 M), or 1 mM glycine. Following the addition of 0.3 μCi of [^3H]MK-801 (22.5 Ci/mmol), reactions were again incubated for 15 minutes at 25° C. (nonequilibrium conditions). Bound and free [^3H]MK-801 were separated via rapid filtration using a Brandel apparatus.
In analyzing the data, the DPM (disintegrations per minute) of [^3H]MK-801 remaining on the filter were measured for each concentration of test compound or for 1 mM glycine. The DPM values for each concentration of a ligand (N=2) were averaged. The baseline value was determined from the best fit curve of the DPM values modeled using the GraphPad program and the log(agonist) vs. response(three parameters) algorithm was then subtracted from all points in the dataset. The % maximal [^3H]MK-801 binding was then calculated relative to that of 1 mM glycine: all baseline subtracted DPM values were divided by the average value for 1 mM glycine. The EC50 and % maximal activity were then obtained from the best fit curve of the % maximal [^3H]MK-801 binding data modelled using the GraphPad program and the log(agonist) vs. response(three parameters) algorithm. […]

[5] = target: T5, NMDAR2D expressing HEK cell membranes (Homo sapiens, UniProt O15399); experiment: NMDAR agonist assay, [3H]MK-801 binding, NMDAR2D; type: biochemical; details: 50 μM glutamate
T5 construct: expressed in transfected cells; host or cells: HEK cells (membrane extract)
Method: as §2, §3
(§4) In analyzing the data, the DPM (disintegrations per minute) of [^3H]MK-801 remaining on the filter were measured for each concentration of test compound or for 1 mM glycine. The DPM values for each concentration of a ligand (N=2) were averaged. The baseline value was determined from the best fit curve of the DPM values modeled using the GraphPad program and the log(agonist) vs. response(three parameters) algorithm was then subtracted from all points in the dataset. The % maximal [^3H]MK-801 binding was then calculated relative to that of 1 mM glycine: all baseline subtracted DPM values were divided by the average value for 1 mM glycine. The EC50 and % maximal activity were then obtained from the best fit curve of the % maximal [^3H]MK-801 binding data modelled using the GraphPad program and the log(agonist) vs. response(three parameters) algorithm.
(§5) The tables below summarize the results for the wild type NMDAR agonists NMDAR2A, NMDAR2B, NMDAR2C, and NMDAR2D, and whether the compound is not an agonist (−), is an agonist (+), or is a strong agonist (++), where column A is based on the % maximal [^3H]MK-801 binding relative to 1 mM glycine (−=0; <100%=+; and >100%=++); and column B is based on log EC50 values (0=−; ≥1×10^−9 M (e.g., −8)=+; and <1×10^−9 M (e.g., −10)=++).

[6] = target: T6, NMDAR2D expressing HEK cell membranes (Homo sapiens, UniProt O15399+Q05586); experiment: NMDAR agonist assay, [3H]MK-801 binding, NMDAR2D; type: biochemical; details: 50 μM glutamate; read-out: NMDAR2D B: log EC50 (converted)
T6 construct: expressed in transfected cells; host or cells: HEK cells (membrane extract)
Method: as §2, §3, §4, §5

IV pharmacokinetics = experiment: IV pharmacokinetics; parameters: species or system Sprague Dawley rats; details: Sprague Dawley, in vivo, rat, 2 mg/kg, normal saline
Method: Sprague Dawley rats were dosed intravenously using a normal saline formulation containing 2 mg/kg of the compounds identified in the below table. The table below summarizes the results of the IV pharmacokinetics.

[7] = Oral pharmacokinetics (plasma, brain, CSF); type: in vivo, Sprague Dawley rats; details: Sprague Dawley, plasma, po, rat, per os, 10 mg/kg
Method: In another experiment, Sprague Dawley rats were dosed per os using a normal saline formulation containing 10 mg/kg of the compounds identified in the table below. Plasma, brain, and CSF samples were analyzed at various time points over a 24 hour period. The table below summarizes the results of the oral pharmacokinetics.

Sprague Dawley rats [8] = experiment: Porsolt forced swim test; type: in vivo
Method: A non-clinical in vivo pharmacology study (Porsolt assay) was performed to measure antidepressant-like effects. A negative control (0.5% sodium carboxymethyl cellulose in 0.9% sterile saline vehicle) and a positive control (fluoxetine) are shown for comparison against test compound. The study allowed for the evaluation of the effects of each compound on the Porsolt forced swim test as assessed by the rats' response (reduced floating time) during a 5-minute swimming test.
Male 2-3 month old Sprague Dawley rats were used (Harlan, Indianapolis, IN). Rats were housed in Lucite cages with aspen wood chip bedding, maintained on a 12:12 light:dark cycle (lights on at 5 AM), and given ad libitum access to Purina lab chow (USA) and tap water throughout the study.
The Porsolt forced swim test adapted for use in rats was performed as described by Burgdorf et al., (The long-lasting antidepressant effects of rapastinel (GLYX-13) are associated with a metaplasticity process in the medial prefrontal cortex and hippocampus. Neuroscience 308:202-211, 2015). Animals were placed in a 46 cm tall×20 cm in diameter clear glass tube filled to 30 cm with tap water (23±1° C.) for 15 min on the first day (habituation) and 5 min on the subsequent test day. Positive control fluoxetine was dosed 3 times (24 h, 5 h and 1 h) prior to testing. Animals were tested 1 h or 24 h post-dosing with the test compounds or vehicle. Animals received a 15 min habituation session 1 day before the 5 min test. Water was changed after every other animal. Animals were videotaped, and floating time as defined as the minimal amount of effort required to keep the animals head above water was scored offline by a blinded experimenter with high inter-rater reliability (Pearson's r>0.9).
Each compound tested at dose level shown. Significance vs. vehicle group for each experiment is marked. […] A compound marked “No” was not statistically significant from vehicle. Data was averaged for test compound and vehicle groups (N approximately 8 per group) and the percent reduction in floating for group treated with test compound relative to group treated with vehicle is shown.

Sprague Dawley rats [9] = experiment: Bennett model of mechanical analgesia (sciatic nerve chronic constriction injury); type: in vivo; details: 150 mg/kg PO
Method: The Bennett model of mechanical analgesia is used to assess the analgesic effects of compounds as measured by paw withdrawal threshold. Bennett G J, Xie Y K, “A peripheral mononeuropathy in rat that produces disorders of pain sensation like those seen in man,” Pain 33:87-107, 1988. […] Vehicle animals receive the surgery and then receive vehicle rather than test compound. Animals were tested 1 hr, 24 h and 1 wk post-test compound or vehicle administration.
Male 2-3 month old Sprague Dawley rats were used. Harlan was the supplier for all studies. Rats were housed in Lucite cages with aspen wood chip bedding, maintained on a 12:12 light:dark cycle (lights on at 5 AM), and given ad libitum access to Purina lab chow (USA) and tap water throughout the study.
Rats were anesthetized using inhaled isoflurane (2.5%). Sciatic nerve chronic constriction nerve injury surgery was performed as previously described (Bennett and Xie, 1988). An incision (˜1.5 cm in length) was made with a scalpel blade dorsally through skin on the right hind limb, parallel and posterior to femur. Using a small pointed hemostat, the biceps femoris and gluteus superficialis muscles were separated. Using curved blunt forceps, the common sciatic nerve was isolated and exposed. For the mechanical analgesia studies, the whole sciatic nerve was ligated. Using hemostats/forceps and chromic gut (5-0), the nerve was loosely ligated with a square knot; 3 ligatures, 1 mm apart were placed on the nerve. […] Testing occurred approximately 2 weeks post-surgery.
During testing, rats were acclimated to the surface of a suspended wire mesh grid (1 cm×1 cm, with the wire being 0.3 cm in diameter) for 15-20 min. Starting from the smallest, each Von Frey filament was pressed perpendicularly to the plantar surface of the affected (ipsilateral) hind paw until slightly bent and then held for 6 second. If an obvious hind paw withdrawal or a flinching behavior immediately after the withdrawal of the filament was not observed, the next larger filament was used in the same manner. In case of a response, a lower filament was used. This was repeated until six responses were collected.
For all studies, animals were baselined prior to study start to test for allodynia (defined as a paw withdrawal threshold under 5). A subset of animals was tested with gabapentin (150 mg/kg, PO) to ensure at least 50% analgesia. Once it was confirmed animals were ready for study initiation, animals were balanced across groups. All study investigators were blind to treatment conditions. Animals were dosed with 0.1, 1, 10, or 30 mg/kg of test compound via oral gavage (PO), control sets of animals were dosed with gabapentin (150 mg/kg, PO) or vehicle (0.5% Na-CMC in 0.9% sterile saline, PO). Testing occurred 1 h post-dosing with animals retested 24 hrs and 1 week post-dosing. The percent analgesia calculations for each animal were made using the following equation: % analgesia=[(log(x)−y)/((log (z)−y)]*100, where x=the paw withdrawal threshold for the drug-treated animal in grams, y=the average of the log(x) values for the vehicle treated group, and z=the paw withdrawal threshold for naïve animals in grams (historical value of 15 used). The results for Compound AA-2, where the percentage of analgesia is measured at 1 hour, 24 hours, and 1 week after compound administration are as follows: for 0.1 mg/kg dose: 22.3% at 1 h, 1.6% at 24 h, and 2.3% at 1 wk; for 1 mg/kg dose: 19.2% at 1 h, 10.7% at 24 h, and 11.0% at 1 wk; for 10 mg/kg dose: 38.1% at 1 h, 24.3% at 24 h, and 41.4% at 1 wk; and for 30 mg/kg dose: 24.4% at 1 h, 8.7% at 24 h, and 34.5% at 1 wk.

[10] = 1 h post-dose, 20 mg/kg, dosed 3 times (24 h, 5 h and 1 h) prior to testing

T3 sequence (Q13224 27-1484, other chains not shown): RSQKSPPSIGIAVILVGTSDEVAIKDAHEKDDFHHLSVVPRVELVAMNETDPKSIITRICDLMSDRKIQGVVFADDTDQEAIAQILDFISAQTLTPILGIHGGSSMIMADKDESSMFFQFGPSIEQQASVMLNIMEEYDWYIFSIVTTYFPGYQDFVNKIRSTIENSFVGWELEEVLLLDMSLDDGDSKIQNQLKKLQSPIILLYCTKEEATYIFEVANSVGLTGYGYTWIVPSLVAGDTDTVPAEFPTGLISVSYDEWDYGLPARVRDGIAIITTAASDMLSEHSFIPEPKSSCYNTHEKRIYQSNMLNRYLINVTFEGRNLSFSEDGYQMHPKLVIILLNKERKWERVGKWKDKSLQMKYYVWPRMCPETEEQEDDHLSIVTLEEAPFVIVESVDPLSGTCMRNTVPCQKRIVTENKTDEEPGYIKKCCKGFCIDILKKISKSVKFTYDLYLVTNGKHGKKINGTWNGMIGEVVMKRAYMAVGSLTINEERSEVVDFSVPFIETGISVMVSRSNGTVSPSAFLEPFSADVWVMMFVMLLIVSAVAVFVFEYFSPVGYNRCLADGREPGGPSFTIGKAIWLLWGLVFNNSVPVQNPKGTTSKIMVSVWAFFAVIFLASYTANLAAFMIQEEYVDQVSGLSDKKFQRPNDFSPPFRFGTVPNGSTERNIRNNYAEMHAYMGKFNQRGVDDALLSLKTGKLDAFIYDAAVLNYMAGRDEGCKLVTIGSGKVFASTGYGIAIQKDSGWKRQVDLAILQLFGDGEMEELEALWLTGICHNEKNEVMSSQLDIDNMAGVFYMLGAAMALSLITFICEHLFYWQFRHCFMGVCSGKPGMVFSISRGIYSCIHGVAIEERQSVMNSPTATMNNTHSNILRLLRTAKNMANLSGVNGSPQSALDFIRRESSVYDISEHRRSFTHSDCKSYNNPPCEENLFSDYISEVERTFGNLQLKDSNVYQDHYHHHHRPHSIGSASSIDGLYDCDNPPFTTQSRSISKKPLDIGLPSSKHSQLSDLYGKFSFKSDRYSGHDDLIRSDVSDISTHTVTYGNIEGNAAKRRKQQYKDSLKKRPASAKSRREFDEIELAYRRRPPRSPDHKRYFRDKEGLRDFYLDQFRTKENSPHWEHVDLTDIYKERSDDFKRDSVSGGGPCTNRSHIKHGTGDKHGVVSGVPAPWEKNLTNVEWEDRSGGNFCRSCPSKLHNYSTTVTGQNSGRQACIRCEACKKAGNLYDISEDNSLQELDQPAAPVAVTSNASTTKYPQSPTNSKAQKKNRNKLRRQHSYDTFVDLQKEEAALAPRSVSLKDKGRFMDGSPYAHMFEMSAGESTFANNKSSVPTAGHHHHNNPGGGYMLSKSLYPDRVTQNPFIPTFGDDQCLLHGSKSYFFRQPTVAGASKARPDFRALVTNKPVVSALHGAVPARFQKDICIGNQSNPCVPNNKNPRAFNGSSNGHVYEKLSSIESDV
T6 sequence (O15399 28-1336, other chains not shown): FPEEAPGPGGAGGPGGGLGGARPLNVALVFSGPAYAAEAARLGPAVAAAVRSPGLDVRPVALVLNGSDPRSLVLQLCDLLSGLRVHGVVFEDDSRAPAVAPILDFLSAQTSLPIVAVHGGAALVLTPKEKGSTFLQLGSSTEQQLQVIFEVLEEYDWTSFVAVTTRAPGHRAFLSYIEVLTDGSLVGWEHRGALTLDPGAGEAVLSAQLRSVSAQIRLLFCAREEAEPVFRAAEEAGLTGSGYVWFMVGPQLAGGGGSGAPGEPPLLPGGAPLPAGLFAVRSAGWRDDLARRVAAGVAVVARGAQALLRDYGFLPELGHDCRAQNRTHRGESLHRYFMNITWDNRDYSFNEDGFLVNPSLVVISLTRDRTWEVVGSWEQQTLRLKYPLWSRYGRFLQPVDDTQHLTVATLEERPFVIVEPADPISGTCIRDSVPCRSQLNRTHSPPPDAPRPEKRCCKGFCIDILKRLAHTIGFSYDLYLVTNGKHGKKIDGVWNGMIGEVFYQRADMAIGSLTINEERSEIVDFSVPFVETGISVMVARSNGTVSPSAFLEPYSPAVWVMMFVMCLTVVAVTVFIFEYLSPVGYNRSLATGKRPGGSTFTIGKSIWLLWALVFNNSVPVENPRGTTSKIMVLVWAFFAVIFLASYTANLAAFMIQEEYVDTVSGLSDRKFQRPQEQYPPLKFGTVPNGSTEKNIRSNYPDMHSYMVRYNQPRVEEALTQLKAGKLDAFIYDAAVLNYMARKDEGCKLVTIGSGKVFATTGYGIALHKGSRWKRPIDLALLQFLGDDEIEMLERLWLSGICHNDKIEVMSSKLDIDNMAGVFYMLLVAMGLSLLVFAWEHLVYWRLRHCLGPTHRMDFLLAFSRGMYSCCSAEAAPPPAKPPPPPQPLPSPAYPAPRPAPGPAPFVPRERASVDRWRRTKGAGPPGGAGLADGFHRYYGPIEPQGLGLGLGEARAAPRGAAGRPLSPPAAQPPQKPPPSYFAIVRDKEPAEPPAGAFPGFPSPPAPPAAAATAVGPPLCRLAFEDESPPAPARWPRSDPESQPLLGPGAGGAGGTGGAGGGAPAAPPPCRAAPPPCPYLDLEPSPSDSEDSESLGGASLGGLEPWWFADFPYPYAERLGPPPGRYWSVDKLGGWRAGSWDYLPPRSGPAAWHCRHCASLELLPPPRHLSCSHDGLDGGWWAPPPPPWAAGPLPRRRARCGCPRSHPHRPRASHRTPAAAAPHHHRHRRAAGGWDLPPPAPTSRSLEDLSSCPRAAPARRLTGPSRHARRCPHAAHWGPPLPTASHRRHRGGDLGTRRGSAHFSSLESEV
T5 sequence (O15399 28-1336, other chains not shown): as above
T4 sequence (Q14957 20-1233, other chains not shown): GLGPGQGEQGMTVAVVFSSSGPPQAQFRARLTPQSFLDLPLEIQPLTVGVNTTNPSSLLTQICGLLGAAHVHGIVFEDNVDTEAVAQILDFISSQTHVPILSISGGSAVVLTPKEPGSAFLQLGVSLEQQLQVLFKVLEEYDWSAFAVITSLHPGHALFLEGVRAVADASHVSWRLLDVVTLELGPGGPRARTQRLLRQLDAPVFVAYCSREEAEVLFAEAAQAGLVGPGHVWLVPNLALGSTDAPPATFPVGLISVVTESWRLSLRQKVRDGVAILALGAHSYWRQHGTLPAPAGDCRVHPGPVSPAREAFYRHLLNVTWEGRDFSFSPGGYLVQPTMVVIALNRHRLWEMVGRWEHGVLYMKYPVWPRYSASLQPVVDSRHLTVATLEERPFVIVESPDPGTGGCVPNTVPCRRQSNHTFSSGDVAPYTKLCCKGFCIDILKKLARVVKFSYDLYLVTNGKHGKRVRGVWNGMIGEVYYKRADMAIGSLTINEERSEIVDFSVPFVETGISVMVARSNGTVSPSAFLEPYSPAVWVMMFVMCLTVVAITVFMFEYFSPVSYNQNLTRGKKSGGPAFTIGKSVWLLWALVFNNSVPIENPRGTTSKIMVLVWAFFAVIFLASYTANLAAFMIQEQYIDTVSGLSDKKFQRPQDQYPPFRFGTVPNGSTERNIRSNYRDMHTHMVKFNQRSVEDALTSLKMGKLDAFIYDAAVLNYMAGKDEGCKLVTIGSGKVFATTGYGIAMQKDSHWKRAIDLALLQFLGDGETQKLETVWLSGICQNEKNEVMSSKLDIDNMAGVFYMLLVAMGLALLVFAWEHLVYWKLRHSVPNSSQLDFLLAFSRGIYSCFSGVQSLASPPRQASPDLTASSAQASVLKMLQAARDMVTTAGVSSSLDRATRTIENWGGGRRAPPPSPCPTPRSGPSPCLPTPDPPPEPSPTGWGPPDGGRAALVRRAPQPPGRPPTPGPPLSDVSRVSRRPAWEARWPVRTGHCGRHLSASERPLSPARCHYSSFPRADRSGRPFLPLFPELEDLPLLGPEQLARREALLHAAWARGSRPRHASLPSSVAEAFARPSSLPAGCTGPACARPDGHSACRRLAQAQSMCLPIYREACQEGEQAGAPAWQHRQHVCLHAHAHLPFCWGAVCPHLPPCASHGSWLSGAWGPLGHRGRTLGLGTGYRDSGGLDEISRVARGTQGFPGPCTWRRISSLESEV

## COc1ccc(CN2C[C@]3(CCNC(=O)C3)C2=O)cc1 [AA-1, 2-(4-methoxybenzyl)-2,7-diazaspiro[3.5]nonane-1,6-dione]
[1]
  Emax: 0%
[2]
  NMDAR2A B: log EC50: −
[3]; read-out: NMDAR2B B: log EC50 (converted)
  EC50: < 1 nM
[3]; 0.25 h, read-out: NMDAR2B A: % maximal [3H]MK-801 binding relative to 1 mM glycine
  Emax: < 100%
[4]
  NMDAR2C A: % maximal [3H]MK-801 binding relative to 1 mM glycine: − (−=0)
[5]
  NMDAR2D A: % maximal [3H]MK-801 binding relative to 1 mM glycine: + (<100%=+)
[6]
  EC50: ≥ 1 nM
IV pharmacokinetics
  AUC(0-t): 3430 ng·h/mL
  C0: 2340 ng/mL
  clearance: 9.69 mL/min/kg
  half-life: 67.2 min
IV pharmacokinetics; read-out: Vss
  Vd: 0.76 L/kg
[7]
  AUC(0-t): 15500 ng·h/mL
  bioavailability: 90%
  Cmax: 8920 ng/mL
[7]; normal saline
  Tmax: 19.8 min
Sprague Dawley rats [8]; 1 h post-dose, 0.1 mg/kg
  Significance vs. vehicle: Yes (found to be statistically significant (p<=0.05) from vehicle at dose level shown)
Sprague Dawley rats [8]; 1 h post-dose, 0.1 mg/kg, relative to vehicle group
  % reduction in float time: 74.4%
Sprague Dawley rats [8]; 24 h post-dose, 0.1 mg/kg
  Significance vs. vehicle: Yes (found to be statistically significant (p<=0.05) from vehicle at dose level shown)
Sprague Dawley rats [8]; 24 h post-dose, 0.1 mg/kg, relative to vehicle group
  % reduction in float time: 69.50%

## NCC1(CC(=O)O)CCCCC1 [gabapentin, reference compound]
Sprague Dawley rats [9]; 1 week post-administration
  % analgesia, for the study: under 5%
Sprague Dawley rats [9]; 1 wk
  % analgesia, example (typical) control value: 0%
Sprague Dawley rats [9]; 1 h
  % analgesia, example (typical) control value: 72%
Sprague Dawley rats [9]; 1 h post-administration
  % analgesia, for the study: at least 50%
Sprague Dawley rats [9]; 24 h
  % analgesia, example (typical) control value: 16%
Sprague Dawley rats [9]; 24 h post-administration
  % analgesia, for the study: under 5%

## CNCCC(Oc1ccc(C(F)(F)F)cc1)c1ccccc1 (stereo not shown) [Fluoxetine, fluoxetine, reference compound]
Sprague Dawley rats [8]; [10]
  % reduction in float time: 54%
  Significance vs. vehicle: Yes (found to be statistically significant (p<=0.05) from vehicle at dose level shown)
